# Assay: Reactivity of PL13 free acid with aspartic acid
# Conditions: 10 equivalents Asp, pH 7.0, 18 hours, RT
# Description: PL13 free acid was treated with 10 equivalents of aspartic acid (Asp) at pH 7.0 and at RT. Analysis was performed by RP-HPLC at gradient of 1% to 50% B over 15 minutes with detection at 254 nm.
# 50 μL of 2.61 mM PL13 free acid in methanol was mixed with […] of […] in buffer to give a final concentration of 0.42 mM PL13 free acid and 4.2 mM Asp.
smiles,measurement,value
C=Cc1cc(C)nc(CCC(=O)O)c1 [PL13 free acid],stability in the presence of Asp,stable
